Measurements as given in ChEMBL document CHEMBL1201862, “PubChem BioAssay data set” (2004).
Activity calls are given as the source filed them.

Tests used:
Kallikrein-7 = Kallikrein-7 (Homo sapiens, UniProt P49862); test: Fluorescence Intensity-based biochemical primary high throughput dose response assay to identify activators of kallikrein-7 (K7) zymogen.
[1] = biological target: T1, Oxysterols receptor LXR-beta (Homo sapiens, UniProt P55055); test: LXR agonists, Gal4 luciferase reporter, dose response, counter-screen for ssDAF-12 agonist project, cell-based, luminescence, HEK293, S. stercoralis campaign (AID 720737); assay type: functional; conditions: read-out: IC50 (the source's name)
T1 sequence (P55055 whole entry): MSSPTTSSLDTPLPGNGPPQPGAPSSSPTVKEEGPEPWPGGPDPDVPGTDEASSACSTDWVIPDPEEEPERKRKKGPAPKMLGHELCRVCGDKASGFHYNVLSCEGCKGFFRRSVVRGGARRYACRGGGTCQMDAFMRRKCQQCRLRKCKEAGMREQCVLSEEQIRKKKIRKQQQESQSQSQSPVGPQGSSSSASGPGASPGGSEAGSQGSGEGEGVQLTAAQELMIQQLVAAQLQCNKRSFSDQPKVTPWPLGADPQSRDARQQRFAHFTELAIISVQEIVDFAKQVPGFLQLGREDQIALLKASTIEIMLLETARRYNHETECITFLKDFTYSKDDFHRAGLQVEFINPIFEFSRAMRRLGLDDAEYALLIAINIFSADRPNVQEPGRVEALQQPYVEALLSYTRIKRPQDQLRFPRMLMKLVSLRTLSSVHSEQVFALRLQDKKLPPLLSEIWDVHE

[2] = Luminescence-based cell-based high throughput dose response assay to identify activators of the DAF-12 from the parasite S. stercoralis (ssDAF-12).; assay type: functional
[3] = viability loss in HEK293 cells – cell-based, plate reader, cherry-picked samples, cytotoxicity control, dose response (AID 743446); assay type: functional
BJ [4] = test: cells; assay type: functional, cell-based; conditions: Homo sapiens
[5] = blockers of bursicon-stimulated LGR2 cAMP reporter – cell-based, HEK293, CRE-luciferase reporter, cherry pick, set 2, dose response (AID 743343); assay type: functional;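 also: transfected cells were stimulated with diluted bursicon conditioned medium after compound addition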
[6] = A549 cell cytotoxicity, dose response, cytotoxicity control, plate reader, cherry-pick, antagonist series (AID 743412); assay type: functional, cell-based
BJ [7] = test: BJ-TERT fibroblast viability loss – cell-based, RAS-independent, luminescence, dose response (AID 1933); assay type: functional; conditions: Homo sapiens
[8] = Luminescence Cell-Based Dose Confirmation HTS to Identify Inhibitors of Platelet Dense Granule Release. [Related pubchem assays: 1663 (Primary HTS), 1678 (Summary of Project)]; assay type: functional
[9] = DRD fibroblast viability loss – cell-based, non-viral oncogenic, luminescence, dose response (AID 1934); assay type: functional; conditions: Homo sapiens
BJ [10] = test: BJ-TERT-LT-ST fibroblast viability loss – cell-based, RAS-independent, luminescence, dose response (AID 1935); assay type: functional; conditions: Homo sapiens;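 also: BJ fibroblasts immortalized with TERT plus LT and ST oncogenes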
[11] = blockade of melanocortin 4 receptor signaling – cell-based, plate reader, cherry pick, counter-screen for LGR2 antagonist project, dose response (AID 743444); assay type: functional;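 also: transfected HEK 293 cells stimulated with alpha-MSH peptide; potency of inhibitors of the alpha-MSH evoked signal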
[12] = toxicity toward HepG2 liver cells – cell-based, plate reader, cherry-pick, antagonist series, cytotoxicity control, dose response (AID 743416); assay type: functional
[13] = biological target: Luciferin 4-monooxygenase (Photinus pyralis, UniProt P08659); test: inhibition of purified Photinus pyralis luciferase – biochemical, luminescence, dose response (AID 1891)
Chain of Luciferin 4-monooxygenase (P08659 whole entry): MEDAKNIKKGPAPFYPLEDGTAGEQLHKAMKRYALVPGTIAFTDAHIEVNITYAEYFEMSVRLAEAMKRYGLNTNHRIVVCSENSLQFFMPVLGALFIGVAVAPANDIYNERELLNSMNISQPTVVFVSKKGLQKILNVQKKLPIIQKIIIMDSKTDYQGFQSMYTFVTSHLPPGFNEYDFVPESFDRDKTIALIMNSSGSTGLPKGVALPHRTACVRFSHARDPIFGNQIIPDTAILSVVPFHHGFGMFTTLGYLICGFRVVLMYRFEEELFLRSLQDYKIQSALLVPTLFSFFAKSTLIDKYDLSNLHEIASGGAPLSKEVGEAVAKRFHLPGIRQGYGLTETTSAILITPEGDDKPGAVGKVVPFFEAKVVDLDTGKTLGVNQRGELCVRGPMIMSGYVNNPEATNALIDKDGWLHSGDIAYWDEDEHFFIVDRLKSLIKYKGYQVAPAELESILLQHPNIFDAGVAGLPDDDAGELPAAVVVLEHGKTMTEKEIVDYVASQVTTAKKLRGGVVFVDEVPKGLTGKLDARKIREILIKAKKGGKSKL

HEK293 = test: viability loss in HEK293T cells – cell-based, ATP luminescence, cherry-pick samples, cytotoxicity control, dose response (AID 687005); assay type: functional; conditions: Homo sapiens;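 also: cells exposed to compound for 48 hours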
HeLa = test: viability loss in HeLa cells – cell-based, ATP luminescence, cherry-pick samples, cytotoxicity control, dose response (AID 687004); assay type: functional; conditions: Homo sapiens
[14] = HEK293 Cytotoxicity Assay Measured in Cell-Based System Using Plate Reader - 7071-01_Inhibitor_Dose_CherryPick_Activity_Set2.; assay type: functional
cells = assay type: functional, cell-based; conditions: INS-1E
[15] = IC50 of insulin release inhibition, rat insulinoma INS-1E line, 5 mM glucose, cell-based (AID 1117331); assay type: functional

Chain of Kallikrein-7 (P49862 whole entry, the tested form may be a part): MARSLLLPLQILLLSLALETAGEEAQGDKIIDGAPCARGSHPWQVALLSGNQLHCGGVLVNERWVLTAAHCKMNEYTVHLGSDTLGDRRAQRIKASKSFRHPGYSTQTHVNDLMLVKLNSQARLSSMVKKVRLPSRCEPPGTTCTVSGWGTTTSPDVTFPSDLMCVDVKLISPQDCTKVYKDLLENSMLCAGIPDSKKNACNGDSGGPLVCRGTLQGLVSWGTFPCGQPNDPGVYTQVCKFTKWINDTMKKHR

With `COc1ccc(C2Nc3ccccc3C(=O)N2NS(C)(=O)=O)cc1OC` (configuration not stated) the EC50 (Kallikrein-7) was 38.8 µM (inactive).

In the case of `O=C(O)C(=O)/C(=C\c1ccccc1)c1ccc2ccccc2n1`, the EC50 [1] is reported as > 67.5 µM (inactive) and the IC50 [2] is reported as > 67.5 µM (inactive).

In the case of `CCOc1ccc(Nc2nc(N)c3ccccc3n2)cc1`, the AC50 [3] is reported as 13.2 µM (active), the EC50 (BJ [4]) is reported as 8.24 µM (active) and the AC50 [5] is reported as 1.62 µM (active). The AC50 [6] was 12.8 µM (active), the EC50 (BJ [7]) was 7.8 µM (active) and the EC50 [8] was 0.738 µM (active). The EC50 [9] was 8.22 µM (active), the EC50 (BJ [10]) was 17.5 µM (active) and the AC50 [11] was 2.31 µM (active). For the same compound, the AC50 [12] was 12.9 µM (active) and the EC50 [13] was 0.765 µM (active).

In the case of `CC(C)(C)c1ccc(OCC(=O)NC(c2ccccc2)c2ccccc2)cc1`, the AC50 (HEK293) is reported as 3.2 µM (active), the AC50 (HeLa) is reported as > 70 µM (inactive) and the AC50 [14] is reported as 3.2 µM (active).

For `O=C(Nc1c(-c2ccccc2)nc2ncccn12)c1ccccc1`, the EC50 (Kallikrein-7) was > 69.6 µM (inactive).

In the case of `Cc1ccc2nsnc2c1NC(=O)c1cccnc1Cl`, the EC50 [1] is reported as > 67.5 µM (inactive) and the IC50 [2] is reported as > 67.5 µM (inactive).

For `CN1CCc2cc(Cl)c(O)cc2[C@H]2c3ccccc3CC[C@@H]21` [ECOPIPAM], the IC50 (cells) was > 33.3 µM (inactive) and the IC50 [15] was 15.4 µM (inactive).
